The record followed here is US20080132505A1 (Glaxo Group Limited, priority 2004, published 2008).

In the assay the target is human cannabinoid CB2 receptor (Homo sapiens, UniProt P34972). The experiment in a line: Cannabinoid CB2 receptor agonist activity (yeast reporter assay, FDGlu fluorescence). It counts as cell-based. The settings on record: for EC50: EC50 value at the cloned human cannabinoid CB2 receptor; for Emax: read-out: efficacy value (Emax relative to HU210) at the cloned human cannabinoid CB2 receptor. As to the method: Determination of Cannabinoid CB2 Receptor Agonist Activity
human cannabinoid CB2 receptor, sequence (P34972 whole entry): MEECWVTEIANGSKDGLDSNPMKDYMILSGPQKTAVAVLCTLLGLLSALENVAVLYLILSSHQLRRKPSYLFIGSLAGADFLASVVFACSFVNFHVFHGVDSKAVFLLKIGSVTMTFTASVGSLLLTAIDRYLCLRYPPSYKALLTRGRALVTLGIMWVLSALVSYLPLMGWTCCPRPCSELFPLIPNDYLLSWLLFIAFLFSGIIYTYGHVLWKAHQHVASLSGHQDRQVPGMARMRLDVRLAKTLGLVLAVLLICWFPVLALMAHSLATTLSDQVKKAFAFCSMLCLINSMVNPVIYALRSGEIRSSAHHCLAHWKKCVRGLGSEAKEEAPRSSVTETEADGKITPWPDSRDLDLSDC
The cannabinoid CB2 receptor agonist activity of the compounds of formula (I)-(IV) was determined in accordance with the following experimental method.
Yeast (Saccharomyces cerevisiae) cells expressing the human cannabinoid CB2 receptor were generated by integration of an expression cassette into the ura3 chromosomal locus of yeast strain MMY23. This cassette consisted of DNA sequence encoding the human CB2 receptor flanked by the yeast GPD promoter to the 5′ end of CB2 and a yeast transcriptional terminator sequence to the 3′ end of CB2. MMY23 expresses a yeast/mammalian chimeric G-protein alpha subunit in which the C-terminal 5 amino acids of Gpa1 are replaced with the C-terminal 5 amino acids of human Gαi3 (as described in Brown et al. (2000), Yeast 16:11-22). Cells were grown at 30° C. in liquid Synthetic Complete (SC) yeast media (Guthrie and Fink (1991), Methods in Enzymology, Vol. 194) lacking uracil, tryptophan, adenine and leucine to late logarithmic phase (approximately 6 OD600/ml).
Agonists were prepared as 10 mM stocks in DMSO. […] Agonist solutions in DMSO (1% final assay volume) were transferred into black, clear bottom, microtitre plates from NUNC (96- or 384-well). Cells were suspended at a density of 0.2 OD600/ml in SC media lacking histidine, uracil, tryptophan, adenine and leucine and supplemented with 10 mM 3-aminotriazole, 0.1M sodium phosphate pH 7.0, and […] fluorescein di-β-D-glucopyranoside (FDGlu). This mixture (50 ul per well for 384-well plates, 200 ul per well for 96-well plates) was added to agonist in the assay plates (Multidrop 384, Labsystems). After incubation at 30° C. for 24 hours, fluorescence resulting from degradation of FDGlu to fluorescein due to exoglucanase, an endogenous yeast enzyme produced during agonist-stimulated cell growth, was determined using a Spectrofluor microtitre plate reader (Tecan; excitation wavelength: 485 nm; emission wavelength: 535 nm). Fluorescence was plotted against compound concentration and iteratively curve fitted using a four parameter fit to generate a concentration effect value. Efficacy (Emax) was calculated from the equation
where Max[compound X] and Min[compound X] are the fitted maximum and minimum respectively from the concentration effect curve for compound X, and Max[HU210] and Min[HU210] are the fitted maximum and minimum respectively from the concentration effect curve for (6aR,10aR)-3-(1,1′-Dimethylheptyl)-6a,7,10,10a-tetrahydro-1-hydroxy-6,6-dimethyl-6H-dibenzo[b,d]pyran-9-methanol (HU210; available from Tocris). Equieffective molar ratio (EMR) values were calculated from the equation
Where EC50 [compound X] is the EC50 of compound X and EC50 [HU210] is the EC50 of HU210.
In general terms: Reporter assays use an easily measured gene product as a stand-in for the process of interest.

For `O=C(NCc1ccccc1Br)c1cnc(Nc2cccc(Cl)c2)nc1C(F)(F)F` [2-(3-Chloro-phenylamino)-4-trifluoromethyl-pyrimidine-5-carboxylic acid 2-bromo-benzylamide], the “activity in the CB2 assay described herein” value (from here on “activity”) was “inactive”. Consider `COc1ccccc1CNC(=O)c1cnc(Nc2cccc(Cl)c2)nc1C(F)(F)F` [2-(3-Chloro-phenylamino)-4-trifluoromethyl-pyrimidine-5-carboxylic acid 2-methoxy-benzylamide], for which the “activity” value is “inactive”. As for `CN(Cc1ccccc1)C(=O)c1cnc(Nc2ccc(C(C)(C)C)cc2)nc1C(F)(F)F` [2-(4-tert-butyl-phenylamino)-4-trifluoromethyl-pyrimidine-5-carboxylic acid benzyl-methyl-amide], the “activity” value is “inactive”. For `CC(C)(C)c1ccc(Nc2ncc(C(=O)NCc3ccccc3)c(C(F)(F)F)n2)cc1` [2-(4-tert-butyl-phenylamino)-4-trifluoromethyl-pyrimidine-5-carboxylic acid benzylamide], the “activity” value was “inactive”.

As usually defined, the EC50 is the concentration at which the effect is half-maximal. High values mean a less potent agent, low ones a more potent agent. By Emax is commonly meant the maximal effect, on the per cent scale that the assay sets. Consider `O=C(c1cnc(Nc2cccc(Cl)c2)nc1C(F)(F)F)N1CCCCC1` [Example 1, 1-[2-(3-Chlorophenylamino)-4-trifluoromethylpyrimidin-5-yl]-1-piperidin-1-ylmethanone], for which the EC50 fell in the range of 20 to 300 nM and the Emax is more than 50%.

For the compound `O=C(NCC1CCCC1)c1cnc(Nc2cccc(Cl)c2)nc1C(F)(F)F` [Example 2, 2-(3-Chlorophenylamino)-4-trifluoromethylpyrimidine-5-carboxylic acid cyclopentylmethyl-amide], the EC50 is 20 to 300 nM and the Emax was more than 50%.

As for `O=C(c1cnc(Nc2cccc(Cl)c2)nc1C(F)(F)F)N1CCOCC1` [Example 3, 1-[2-(3-Chlorophenylamino)-4-trifluoromethylpyrimidin-5-yl]-1-morpholin-4-yl-methanone], the 50% effective concentration (EC50) was 20 to 300 nM and the maximum response (Emax) was more than 50%. Consider `O=C(NCC1CCCCC1)c1cnc(Nc2cccc(Cl)c2)nc1C(F)(F)F` [Example 4, 2-(3-Chlorophenylamino)-4-trifluoromethylpyrimidine-5-carboxylic acid cyclohexylmethylamide], for which the EC50 was 20 to 300 nM and the Emax was more than 50%. Turning to `O=C(NCC1CCCCC1)c1cnc(Nc2ccccc2)nc1C(F)(F)F` [Example 5], the Emax was more than 50%. Take `O=C(c1cnc(Nc2cccc(Cl)c2Cl)nc1C(F)(F)F)N1CCOCC1` [Example 6, 1-[2-(2,3-Dichlorophenylamino)-4-trifluoromethylpyrimidin-5-yl]-1-morpholin-4-yl-methanone]: the EC50 is 20 to 300 nM and the Emax was more than 50%.

`O=C(c1cnc(Nc2ccc(Cl)cc2Cl)nc1C(F)(F)F)N1CCOCC1` [Example 7, 1-[2-(2,4-Dichlorophenylamino)-4-trifluoromethylpyrimidin-5-yl]-1-morpholin-4-yl-methanone]: the EC50 lay in the range of 20 to 300 nM and the Emax is more than 50%. On the same counts, the results for `O=C(c1cnc(Nc2cc(Cl)ccc2Cl)nc1C(F)(F)F)N1CCOCC1` [Example 9, 1-[2-(2,5-Dichlorophenylamino)-4-trifluoromethylpyrimidin-5-yl]-1-morpholin-4-yl-methanone] are 20 to 300 nM and more than 50%. Take `O=C(c1cnc(Nc2cccc(F)c2)nc1C(F)(F)F)N1CCOCC1` [Example 10, 1-[2-(3-Fluorophenylamino)-4-trifluoromethylpyrimidin-5-yl]-1-morpholin-4-yl-methanone]: the EC50 lay in the range of 20 to 300 nM and the Emax is more than 50%. Take `O=C(c1cnc(Nc2cccc(Br)c2)nc1C(F)(F)F)N1CCOCC1` [Example 11, 1-[2-(3-Bromophenylamino)-4-trifluoromethylpyrimidin-5-yl]-1-morpholin-4-yl-methanone]: the EC50 was in the range of 20 to 300 nM and the Emax was more than 50%.

Consider `O=C(c1cnc(Nc2cccc(Br)c2)nc1C(F)(F)F)N1CCCCC1` [Example 12], for which the Emax was more than 50%. As to `O=C(c1cnc(Nc2cc(Cl)cc(Cl)c2)nc1C(F)(F)F)N1CCOCC1` [Example 13, 1-[2-(3,5-Dichlorophenylamino)-4-trifluoromethylpyrimidin-5-yl]-1-morpholin-4-yl-methanone], the EC50 is 20 to 300 nM and the Emax was more than 50%. As to `O=C(NC1CCCC1)c1cnc(Nc2cccc(Cl)c2)nc1C(F)(F)F` [Example 14, 2-(3-Chlorophenylamino)-4-trifluoromethylpyrimidine-5-carboxylic acid cyclopentylamide], the EC50 lay in the range of 20 to 300 nM and the Emax is more than 50%. With `O=C(NCC1CCCCC1)c1cnc(Nc2cccc(Cl)c2Cl)nc1C(F)(F)F` [Example 15, 2-(2,3-Dichlorophenylamino)-4-trifluoromethylpyrimidine-5-carboxylic acid cyclohexylmethyl-amide], the EC50 fell in the range of 20 to 300 nM and the maximal effect (Emax) is more than 50%.

For the compound `O=C(NCC1CCCCC1)c1cnc(Nc2ccc(Cl)cc2Cl)nc1C(F)(F)F` [Example 16, 2-(2,4-Dichlorophenylamino)-4-trifluoromethylpyrimidine-5-carboxylic acid cyclohexylmethyl-amide], the EC50 fell in the range of 20 to 300 nM and the Emax was more than 50%. As to `O=C(NCC1CCCCC1)c1cnc(Nc2ccc(Cl)c(Cl)c2)nc1C(F)(F)F` [Example 17, 2-(3,4-Dichlorophenylamino)-4-trifluoromethylpyrimidine-5-carboxylic acid cyclohexylmethyl-amide], the EC50 fell in the range of 20 to 300 nM and the Emax is more than 50%. In the case of `O=C(NCC1CCCCC1)c1cnc(Nc2cc(Cl)cc(Cl)c2)nc1C(F)(F)F` [Example 18, 2-(3,5-Dichlorophenylamino)-4-trifluoromethylprimidine-5-carboxylic acid cyclohexylmethyl-amide], the EC50 was 20 to 300 nM and the Emax was more than 50%.

Turning to `O=C(NCC1CCCCC1)c1cnc(Nc2cccc(Br)c2)nc1C(F)(F)F` [Example 20, 2-(3-Bromophenylamino)-4-trifluoromethylpyrimidine-5-carboxylic acid cyclohexylmethyl-amide], the EC50 was 20 to 300 nM and the Emax is more than 50%. Taken in the same sequence, the figures for `O=C(NCC1CCCCC1)c1cnc(Nc2c(Cl)cccc2Cl)nc1C(F)(F)F` [Example 21, 2-(2,6-Dichlorophenylamino)-4-trifluoromethylpyrimidine-5-carboxylic acid cyclohexylmethyl-amide] were 20 to 300 nM and more than 50%. Consider `O=C(NCC1CCOCC1)c1cnc(Nc2cccc(Cl)c2)nc1C(F)(F)F` [Example 22, 2-(3-Chlorophenylamino)-4-trifluoromethylpyrimidine-5-carboxylic acid (tetrahydro-pyran-4-ylmethyl)-amide], for which the EC50 is 20 to 300 nM and the Emax was more than 50%. As to `O=C(NC1CCC1)c1cnc(Nc2cccc(Cl)c2)nc1C(F)(F)F` [Example 23, 2-(3-Chlorophenylamino)-4-trifluoromethylpyrimidine-5-carboxylic acid cyclobutyl-amide], the EC50 lay within 20 to 300 nM and the Emax was more than 50%. Taken in the same sequence, the figures for `O=C(c1cnc(Nc2ccccc2)nc1C(F)(F)F)N1CCCCC1` [Example 24, 1-(2-Phenylamino-4-trifluoromethyl-pyrimidin-5-yl)-1-piperidin-1-yl-methanone] were 300 to 1000 nM and more than 50%. In the case of `O=C(c1cnc(Nc2ccccc2)nc1C(F)(F)F)N1CCOCC1` [Example 25, 1-Morpholin-4-yl-1-(2-phenylamino-4-trifluoromethyl-pyrimidin-5-yl)-methanone], the EC50 was 300 to 1000 nM and the Emax is more than 50%. As to `N#CCNC(=O)c1cnc(Nc2cccc(Cl)c2)nc1C(F)(F)F` [Example 26, 2-(3-Chloro-phenylamino)-4-trifluoromethyl-pyrimidine-5-carboxylic acid cyanomethyl-amide], the EC50 fell in the range of 300 to 1000 nM and the Emax was more than 50%. As for `CC(C)(C)CCNC(=O)c1cnc(Nc2cccc(Cl)c2)nc1C(F)(F)F` [Example 27, 2-(3-Chloro-phenylamino)-4-trifluoromethyl-pyrimidine-5-carboxylic acid (3,3-dimethyl-butyl)-amide], the EC50 was in the range of 300 to 1000 nM and the Emax is more than 50%.
